Source: patent EP4755888A1 (ILAb Co., Ltd., priority 2023, dated 2025)

These molecules were tested against PD-1/PD-L1 (Homo sapiens, UniProt Q9NZQ7) (assay: TR-FRET PD-1/PD-L1 binding inhibition at the molecular level (free proteins)). Conditions: Tag1-PD-L1 and Tag2-PD-1 proteins, twelve concentrations from 200 nM, 2 hours at room temperature, read-out: FRET assay (IC50).
Summary of the method: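 HTRF read-out at 665/620 nm after 2 h at room temperature. Detection used anti-Tag1 Eu cryptate plus anti-Tag2 XL665 antibodies. Tagged PD-L1 and PD-1 proteins were pre-mixed with compound across twelve […] 1:2 dilutions starting at 200 nM.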

Sequence of PD-1/PD-L1 (Q9NZQ7 19-238 limits assumed): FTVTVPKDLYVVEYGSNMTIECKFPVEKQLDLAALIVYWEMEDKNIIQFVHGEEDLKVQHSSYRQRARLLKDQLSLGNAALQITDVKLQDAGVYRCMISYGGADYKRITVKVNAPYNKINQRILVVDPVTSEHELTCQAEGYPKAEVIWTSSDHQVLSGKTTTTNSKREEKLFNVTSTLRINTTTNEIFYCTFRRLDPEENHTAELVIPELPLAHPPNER

Structure (SMILES)	IC50
CC(=O)NCCNC1CCCn2nc(C(=O)Nc3cccc(-c4cccc(NC(=O)c5ccc(CNCCO)cn5)c4C)c3C)cc21 (centres unmarked) [Compound 72, 4-((2-acetamidoethyl)amino)-N-(3'-(5-(((2-hydroxyethyl)amino)methyl)picolinamido)-2,2'-dimethyl-[1,1'-biphenyl]-3-yl)-4,5,6,7-tetrahydropyrazolo[1,5-a]pyridine-2-carboxamide]	< 10 nM
Cc1c(NC(=O)c2ccc(CNCCO)cn2)cccc1-c1cccc(NC(=O)c2cc3n(n2)CCCC3N2CC[C@@H](O)C2)c1C (stereo partly drawn) [Compound 73, N-(3'-(5-(((2-hydroxyethyl)amino)methyl)picolinamido)-2,2'-dimethyl-[1,1'-biphenyl]-3-yl)-4-((R)-3-hydroxypyrrolidin-1-yl)-4,5,6,7-tetrahydropyrazolo[1,5-a]pyridine-2-carboxamide]	< 10 nM
Cc1c(NC(=O)c2ccc(CNCCO)cn2)cccc1-c1cccc(NC(=O)c2cc3n(n2)CCCC3NCCO)c1C (centres unmarked) [Compound 74]	< 10 nM
Cc1c(NC(=O)c2ccc(CNCCO)cn2)cccc1-c1cccc(NC(=O)c2cc3n(n2)CCCC3NCC2CCC(=O)N2)c1C (centres unmarked) [Compound 75, N-(3'-(5-(((2-hydroxyethyl)amino)methyl)picolinamido)-2,2'-dimethyl-[1,1'-biphenyl]-3-yl)-4-(((5-oxopyrrolidin-2-yl)methyl)amino)-4,5,6,7-tetrahydropyrazolo[1,5-a]pyridine-2-carboxamide]	< 10 nM
Cc1c(NC(=O)c2ccc(CNCCO)cn2)cccc1-c1cccc(NC(=O)c2cc3n(n2)CCCC3NCC(=O)O)c1C (centres unmarked) [Compound 76, 2-((2-((3'-(5-(((2-hydroxyethyl)amino)methyl)picolinamido)-2,2'-dimethyl-[1,1'-biphenyl]-3-yl)carbamoyl)-4,5,6,7-tetrahydropyrazolo[1,5-a]pyridin-4-yl)amino)acetic acid]	< 10 nM
Cc1c(NC(=O)c2ccc(CNCCO)cn2)cccc1-c1cccc(NC(=O)c2cc3n(n2)CCCC3N2CC[C@@H](C(=O)O)C2)c1C (stereo partly drawn) [Compound 77, (3R)-1-(2-((3'-(5-(((2-hydroxyethyl)amino)methyl)picolinamido)-2,2'-dimethyl-[1,1'-biphenyl]-3-yl)carbamoyl)-4,5,6,7-tetrahydropyrazolo[1,5-a]pyridin-4-yl)pyrrolidine-3-carboxylic acid]	< 10 nM
Cc1c(NC(=O)c2ccc(CNCCO)cn2)cccc1-c1cccc(NC(=O)c2cc3n(n2)CCCC3N2CCC(O)CC2)c1C (centres unmarked) [Compound 78, N-(3'-(5-(((2-hydroxyethyl)amino)methyl)picolinamido)-2,2'-dimethyl-[1,1'-biphenyl]-3-yl)-4-(4-hydroxypiperidin-1-yl)-4,5,6,7-tetrahydropyrazolo[1,5-a]pyridine-2-carboxamide]	< 10 nM
Cc1c(NC(=O)c2ccc(CNCCO)cn2)cccc1-c1cccc(NC(=O)c2cc3n(n2)CCCC3N2CCC(C(=O)O)CC2)c1C (centres unmarked) [Compound 79, 1-(2-((3'-(5-(((2-hydroxyethyl)amino)methyl)picolinamido)-2,2'-dimethyl-[1,1'-biphenyl]-3-yl)carbamoyl)-4,5,6,7-tetrahydropyrazolo[1,5-a]pyridin-4-yl)piperidine-4-carboxylic acid]	< 10 nM
Cc1c(NC(=O)c2ccc(CNCCO)cn2)cccc1-c1cccc(NC(=O)c2cc3n(n2)CCCC3NC(C)(C)C(=O)O)c1C (centres unmarked) [Compound 80, 2-((2-((3'-(5-(((2-hydroxyethyl)amino)methyl)picolinamido)-2,2'-dimethyl-[1,1'-biphenyl]-3-yl)carbamoyl)-4,5,6,7-tetrahydropyrazolo[1,5-a]pyridin-4-yl)amino)-2-methylpropanoic acid]	< 10 nM
O=C(Nc1cccc(-c2cccc(NC(=O)c3cc4n(n3)CCCC4O)c2Cl)c1Cl)c1ccc(CNCCO)cn1 (centres unmarked) [Compound 81, N-(2,2'-dichloro-3'-(5-(((2-hydroxyethyl)amino)methyl)picolinamido)-[1,1'-biphenyl]-3-yl)-4-hydroxy-4,5,6,7-tetrahydropyrazolo[1,5-a]pyridine-2-carboxamide]	< 10 nM
CC(=O)NCCNC1CCCn2nc(C(=O)Nc3cccc(-c4cccc(NC(=O)c5ccc(CNCCO)cn5)c4Cl)c3Cl)cc21 (centres unmarked) [Compound 82, 4-((2-acetamidoethyl)amino)-N-(2,2'-dichloro-3'-(5-(((2-hydroxyethyl)amino)methyl)picolinamido)-[1,1'-biphenyl]-3-yl)-4,5,6,7-tetrahydropyrazolo[1,5-a]pyridine-2-carboxamide]	< 10 nM
O=C(Nc1cccc(-c2cccc(NC(=O)c3cc4n(n3)CCCC4NCCO)c2Cl)c1Cl)c1ccc(CNCCO)cn1 (centres unmarked) [Compound 83, N-(2,2'-dichloro-3'-(5-(((2-hydroxyethyl)amino)methyl)picolinamido)-[1,1'-biphenyl]-3-yl)-4-((2-hydroxyethyl)amino)-4,5,6,7-tetrahydropyrazolo[1,5-a]pyridine-2-carboxamide]	< 10 nM
O=C(Nc1cccc(-c2cccc(NC(=O)c3cc4n(n3)CCCC4N3CC[C@@H](O)C3)c2Cl)c1Cl)c1ccc(CNCCO)cn1 (stereo partly drawn) [Compound 85, N-(2,2'-dichloro-3'-(5-(((2-hydroxyethyl)amino)methyl)picolinamido)-[1,1'-biphenyl]-3-yl)-4-((R)-3-hydroxypyrrolidin-1-yl)-4,5,6,7-tetrahydropyrazolo[1,5-a]pyridine-2-carboxamide]	< 10 nM
O=C(Nc1cccc(-c2cccc(NC(=O)c3cc4n(n3)CCCC4N3CC[C@@H](C(=O)O)C3)c2Cl)c1Cl)c1ccc(CNCCO)cn1 (stereo partly drawn) [Compound 86, (3R)-1-(2-((2,2'-dichloro-3'-(5-(((2-hydroxyethyl)amino)methyl)picolinamido)-[1,1'-biphenyl]-3-yl)carbamoyl)-4,5,6,7-tetrahydropyrazolo[1,5-a]pyridin-4-yl)pyrrolidine-3-carboxylic acid]	< 10 nM
O=C(Nc1cccc(-c2cccc(NC(=O)c3cc4n(n3)CCCC4N3CCC(O)CC3)c2Cl)c1Cl)c1ccc(CNCCO)cn1 (centres unmarked) [Compound 87, N-(2,2'-dichloro-3'-(5-(((2-hydroxyethyl)amino)methyl)picolinamido)-[1,1'-biphenyl]-3-yl)-4-(4-hydroxypiperidin-1-yl)-4,5,6,7-tetrahydropyrazolo[1,5-a]pyridine-2-carboxamide]	10 to 100 nM
O=C(Nc1cccc(-c2cccc(NC(=O)c3cc4n(n3)CCCC4N3CCC(C(=O)O)CC3)c2Cl)c1Cl)c1ccc(CNCCO)cn1 (centres unmarked) [Compound 88, 1-(2-((2,2'-dichloro-3'-(5-(((2-hydroxyethyl)amino)methyl)picolinamido)-[1,1'-biphenyl]-3-yl)carbamoyl)-4,5,6,7-tetrahydropyrazolo[1,5-a]pyridin-4-yl)piperidine-4-carboxylic acid]	< 10 nM
O=C(O)CNC1CCCn2nc(C(=O)Nc3cccc(-c4cccc(NC(=O)c5ccc(CNCCO)cn5)c4Cl)c3Cl)cc21 (centres unmarked) [Compound 89, 2-((2-((2,2'-dichloro-3'-(5-(((2-hydroxyethyl)amino)methyl)picolinamido)-[1,1'-biphenyl]-3-yl)carbamoyl)-4,5,6,7-tetrahydropyrazolo[1,5-a]pyridin-4-yl)amino)acetic acid]	< 10 nM
CC(C)(NC1CCCn2nc(C(=O)Nc3cccc(-c4cccc(NC(=O)c5ccc(CNCCO)cn5)c4Cl)c3Cl)cc21)C(=O)O (centres unmarked) [Compound 90, 2-((2-((2,2'-dichloro-3'-(5-(((2-hydroxyethyl)amino)methyl)picolinamido)-[1,1'-biphenyl]-3-yl)carbamoyl)-4,5,6,7-tetrahydropyrazolo[1,5-a]pyridin-4-yl)amino)-2-methylpropanoic acid]	< 10 nM
Cc1c(NC(=O)c2ccc(CN3CC[C@@H](O)C3)cn2)cccc1-c1cccc(NC(=O)c2cc3n(n2)CCCC3NCCO)c1C (stereo partly drawn) [Compound 91, 4-((2-hydroxyethyl)amino)-N-(3'-(5-(((R)-3-hydroxypyrrolidin-1-yl)methyl)picolinamido)-2,2'-dimethyl-[1,1'-biphenyl]-3-yl)-4,5,6,7-tetrahydropyrazolo[1,5-a]pyridine-2-carboxamide]	< 10 nM
Cc1c(NC(=O)c2ccc(CN3CC[C@@H](O)C3)cn2)cccc1-c1cccc(NC(=O)c2cc3n(n2)CCCC3N2CC[C@@H](O)C2)c1C (stereo partly drawn) [Compound 92, 4-((R)-3-hydroxypyrrolidin-1-yl)-N-(3'-(5-(((R)-3-hydroxypyrrolidin-1-yl)methyl)picolinamido)-2,2'-dimethyl-[1,1'-biphenyl]-3-yl)-4,5,6,7-tetrahydropyrazolo[1,5-a]pyridine-2-carboxamide]	< 10 nM
Cc1c(NC(=O)c2ccc(CN3CC[C@@H](O)C3)cn2)cccc1-c1cccc(NC(=O)c2cc3n(n2)CCCC3NC[C@@H]2CCC(=O)N2)c1C (stereo partly drawn) [Compound 93, N-(3'-(5-(((R)-3-hydroxypyrrolidin-1-yl)methyl)picolinamido)-2,2'-dimethyl-[1,1'-biphenyl]-3-yl)-4-((((S)-5-oxopyrrolidin-2-yl)methyl)amino)-4,5,6,7-tetrahydropyrazolo[1,5-a]pyridine-2-carboxamide]	< 10 nM
CC(=O)NCCNC1CCCn2nc(C(=O)Nc3cccc(-c4cccc(NC(=O)c5ccc(CN6CC[C@@H](O)C6)cn5)c4C)c3C)cc21 (stereo partly drawn) [Compound 94, 4-((2-acetamidoethyl)amino)-N-(3'-(5-(((R)-3-hydroxypyrrolidin-1-yl)methyl)picolinamido)-2,2'-dimethyl-[1,1'-biphenyl]-3-yl)-4,5,6,7-tetrahydropyrazolo[1,5-a]pyridine-2-carboxamide]	< 10 nM
Cc1c(NC(=O)c2ccc(CN3CC[C@@H](O)C3)cn2)cccc1-c1cccc(NC(=O)c2cc3n(n2)CCCC3NCC(=O)O)c1C (stereo partly drawn) [Compound 95, 2-((2-((3'-(5-(((R)-3-hydroxypyrrolidin-1-yl)methyl)picolinamido)-2,2'-dimethyl-[1,1'-biphenyl]-3-yl)carbamoyl)-4,5,6,7-tetrahydropyrazolo[1,5-a]pyridin-4-yl)amino)acetic acid]	< 10 nM
